Source: ChEMBL document CHEMBL4483862, “Open-source discovery of chemical leads for next-generation chemoprotective antimalarials” (2018)

System: Plasmodium berghei
Experiment: Luciferase/luciferin-expressing antifolate-resistant parasites were used to infect a culture of HepG2 cells that were pre-incubated with compounds. Infected hepatocytes emit light due to the luciferase reaction. Assay results are presented as the percent inhibition of light emission compared to control. […]
Format: functional
Settings: sporozoite; for IC90: read-out: LUCIFERASE INFECTION ASSAY - IC90
[1] = read-out: LUCIFERASE INFECTION ASSAY - IC50

Row | SMILES | IC90 [µM] | further results
1 | O=C1C=CC(=O)N1c1cc(Cl)cc(Cl)c1 | > 13.6 | IC50 (FFLUC_HILL_SLOPE 11.6, FFLUC_R_SQUARED 0.448, PBLUC_HILL_SLOPE 9.84, PBLUC_R_SQUARED 0.0939, read-out: LUCIFERASE INFECTION ASSAY - IC50): > 13.6 µM
2 | CCOc1nc(N)c(C#N)c(-c2ccc(C(F)(F)F)cc2)c1C#N | 8.21 | IC50 [1]: 4.53 µM
3 | CCCCCCOCC[N+](C)(CCOCCCCCC)CCOCCCCCC | 1.08 | IC50 (FFLUC_HILL_SLOPE 13.1, FFLUC_R_SQUARED 0.46, HEPG2TOX_HILL_SLOPE 1.63, HEPG2TOX_R_SQUARED 0.995, PBLUC_HILL_SLOPE 15.2, PBLUC_R_SQUARED 0.558, read-out: LUCIFERASE INFECTION ASSAY - IC50): 0.933 µM
4 | O=C(Nc1ccc(-c2nccs2)cc1)c1cc(Br)c[nH]1 | > 10 | IC50 [1]: 7.5 µM
5 | FC(F)(F)/C(=N\C1(C(Cl)(Cl)Cl)Oc2ccccc2O1)NCc1ccco1 | > 10 | IC50 [1]: > 10 µM
6 | COc1cc(-c2nc3ccc(NC(=O)COc4ccccc4)cn3n2)cc(OC)c1OC | > 10 | IC50 (PBLUC_HILL_SLOPE 1.9, PBLUC_R_SQUARED 0.239, read-out: LUCIFERASE INFECTION ASSAY - IC50): 5.59 µM
7 | NC(=O)c1cccc(-c2ccc3ncc(-c4cccnc4)n3n2)c1 | 5.41 | IC50 (HEPG2TOX_HILL_SLOPE 3.58, HEPG2TOX_R_SQUARED 0.988, PBLUC_HILL_SLOPE 1.15, PBLUC_R_SQUARED 0.587, read-out: LUCIFERASE INFECTION ASSAY - IC50): 0.804 µM
8 | O=C(Nc1ccc(OC(F)F)c(Cc2ccccc2)c1)c1ccc(-n2ccnc2)nc1 | > 10 | IC50 (PBLUC_HILL_SLOPE 6.37, PBLUC_R_SQUARED 0.721, read-out: LUCIFERASE INFECTION ASSAY - IC50): 8.94 µM
9 | COc1ccc(CNc2nc3cnc(Nc4ccc(F)c(Cl)c4)cc3n2C)cc1OC | > 10 | IC50 [1]: > 10 µM
10 | Cc1cccn2c(=O)c(/C=N/O)c(Nc3ccc(SC(F)F)cc3)nc12 | > 10 | IC50 [1]: > 10 µM
11 | CN(C(=O)c1cc(-c2ccccc2OCc2ccccc2)ncn1)c1ccccc1 | 5 | IC50 (HEPG2TOX_HILL_SLOPE 0.0237, HEPG2TOX_R_SQUARED 0.016, PBLUC_HILL_SLOPE 4.42, PBLUC_R_SQUARED 0.717, read-out: LUCIFERASE INFECTION ASSAY - IC50): 3.04 µM
12 | O=C1Nc2ccc([N+](=O)[O-])cc2/C1=N/NC(=S)NC1CCCCC1 | 3.82 | IC50 (HEPG2TOX_HILL_SLOPE 8.71, HEPG2TOX_R_SQUARED 0.815, PBLUC_HILL_SLOPE 16.7, PBLUC_R_SQUARED 0.29, read-out: LUCIFERASE INFECTION ASSAY - IC50): 3.35 µM
13 | CC(c1ccc(-n2cncn2)cc1)N(C)c1ncnc2ccsc12 (stereo unspecified) | > 10 | IC50 (HEPG2TOX_HILL_SLOPE 9.54, HEPG2TOX_R_SQUARED 0.431, PBLUC_HILL_SLOPE 1.32, 1.56, PBLUC_R_SQUARED 0.780, 0.216, read-out: LUCIFERASE INFECTION ASSAY - IC50): 3.71 µM
14 | CC(C)C(Nc1ccc(C(F)(F)F)cc1Cl)C(=O)Nc1nc(-c2ccc(F)cc2)cs1 (stereo unspecified) | 5.28 | IC50 (HEPG2TOX_HILL_SLOPE 19.1, HEPG2TOX_R_SQUARED 0.637, PBLUC_HILL_SLOPE 12.2, PBLUC_R_SQUARED 0.325, read-out: LUCIFERASE INFECTION ASSAY - IC50): 4.41 µM
15 | Cc1ccc(NCc2c(Cl)nc3sccn23)c(C)c1 | > 11.3 | IC50 (HEPG2TOX_HILL_SLOPE 1.69, HEPG2TOX_R_SQUARED 0.916, PBLUC_HILL_SLOPE 2.14, PBLUC_R_SQUARED 0.29, read-out: LUCIFERASE INFECTION ASSAY - IC50): 10.3 µM
16 | c1ccc(-c2csc3ncnc(NC4CCCCC4)c23)cc1 | 4.21 | IC50 (HEPG2TOX_HILL_SLOPE 16.2, HEPG2TOX_R_SQUARED 0.468, PBLUC_HILL_SLOPE 9.94, 2.76, PBLUC_R_SQUARED 0.433, 0.667, read-out: LUCIFERASE INFECTION ASSAY - IC50): 4.13 µM
17 | CC(Oc1ccc(C(=O)NCc2ccnc(N(C)C)c2)cn1)c1ccccc1 (stereo unspecified) | 6.11 | IC50 (PBLUC_HILL_SLOPE 81.7, PBLUC_R_SQUARED 0.538, read-out: LUCIFERASE INFECTION ASSAY - IC50): 5.95 µM
18 | C/C(=N\c1cc(C(F)(F)F)ccc1Cl)Nc1ccc(C)cc1 | > 10 | IC50 [1]: > 10 µM
19 | COc1ccc(CNc2ccc3ncc(-c4ccc(Cl)cc4)n3n2)cc1 | 4.67 | IC50 (HEPG2TOX_HILL_SLOPE 3.82, HEPG2TOX_R_SQUARED 0.951, PBLUC_HILL_SLOPE 9.74, PBLUC_R_SQUARED 0.491, read-out: LUCIFERASE INFECTION ASSAY - IC50): 3.73 µM

Row | SMILES | IC90 [µM] | further results
20 | CC(Nc1ncnc2scc(-c3ccccc3)c12)c1ccc(S(C)(=O)=O)cc1 (stereo unspecified) | 7.11 | IC50 (HEPG2TOX_HILL_SLOPE 1.17, HEPG2TOX_R_SQUARED 0.977, PBLUC_HILL_SLOPE 2.44, PBLUC_R_SQUARED 0.865, read-out: LUCIFERASE INFECTION ASSAY - IC50): 2.89 µM
21 | CC(C)(c1ccc(Oc2ccc(NC(=O)C3CC3(C)C)cc2)cc1)c1ccc(Oc2ccc(NC(=O)C3CC3(C)C)cc2)cc1 (stereo unspecified) | > 5.47 | IC50 (FFLUC_HILL_SLOPE 0.986, FFLUC_R_SQUARED 0.483, PBLUC_HILL_SLOPE 0.525, PBLUC_R_SQUARED 0.295, read-out: LUCIFERASE INFECTION ASSAY - IC50): 2.36 µM
22 | O=C(Nc1nnc(-c2ccco2)s1)c1csc(COc2ccc(Cl)cc2)n1 | > 10 | IC50 (PBLUC_HILL_SLOPE 1.45, PBLUC_R_SQUARED 0.301, read-out: LUCIFERASE INFECTION ASSAY - IC50): 4.28 µM
23 | COc1ccc(NS(=O)(=O)c2cc(NC(=O)C3=NNC(=O)CC3)ccc2C)cc1 | > 10 | IC50 (HEPG2TOX_HILL_SLOPE 2.75, HEPG2TOX_R_SQUARED 0.923, PBLUC_HILL_SLOPE 2.64, PBLUC_R_SQUARED 0.0563, read-out: LUCIFERASE INFECTION ASSAY - IC50): 4.97 µM
24 | COc1ccc(CNCC(O)COc2ccc(C(C)(C)C)cc2C)cc1OC (stereo unspecified) | 10 | IC50 (HEPG2TOX_HILL_SLOPE 9.88, HEPG2TOX_R_SQUARED 0.866, PBLUC_HILL_SLOPE 15, PBLUC_R_SQUARED 0.0695, read-out: LUCIFERASE INFECTION ASSAY - IC50): 8.63 µM
25 | O=C(/C=C/c1ccccc1)c1ccc(-n2nncc2-c2ccccc2)cc1 | > 10 | IC50 (HEPG2TOX_HILL_SLOPE 6.47, HEPG2TOX_R_SQUARED 0.294, read-out: LUCIFERASE INFECTION ASSAY - IC50): > 10 µM
26 | CNC(=O)c1ccc(CN(Cc2ccco2)Cc2cccc3cccnc23)cc1 | > 10 | IC50 [1]: > 10 µM
27 | Oc1c(C(c2ccc(C(F)(F)F)cc2)N2CCCC2)cc(Cl)c2cccnc12 (stereo unspecified) | 2.26 | IC50 (FFLUC_HILL_SLOPE 12.3, FFLUC_R_SQUARED 0.824, HEPG2TOX_HILL_SLOPE 1.2, HEPG2TOX_R_SQUARED 0.387, PBLUC_HILL_SLOPE 2.74, PBLUC_R_SQUARED 0.879, read-out: LUCIFERASE INFECTION ASSAY - IC50): 1.01 µM
28 | O=C1OC(c2ccc(C(=O)c3ccccc3)cc2)=N/C1=C1\CCCCCN1 | > 10 | IC50 (HEPG2TOX_HILL_SLOPE 4.29, HEPG2TOX_R_SQUARED 0.683, PBLUC_HILL_SLOPE 20.1, PBLUC_R_SQUARED 0.207, read-out: LUCIFERASE INFECTION ASSAY - IC50): 9.14 µM
29 | CC(C)(C)CC(C)(C)NC(=O)c1cccc(S(=O)(=O)N2CCc3ccccc32)c1 | > 10 | IC50 (HEPG2TOX_HILL_SLOPE 2.33, HEPG2TOX_R_SQUARED 0.906, PBLUC_HILL_SLOPE 19.2, PBLUC_R_SQUARED 0.577, read-out: LUCIFERASE INFECTION ASSAY - IC50): 9.58 µM
30 | CC(C)c1ccc(-c2noc(CCC(=O)Nc3ccn(C)n3)n2)cc1 | > 10 | IC50 [1]: > 10 µM
31 | COc1cc(NC(=O)Nc2nc(C(N)Cc3ccc(C(F)(F)F)cc3)cs2)cc(OC)c1OC (stereo unspecified) | > 6.65 | IC50 (PBLUC_HILL_SLOPE 15.7, PBLUC_R_SQUARED 0.39, read-out: LUCIFERASE INFECTION ASSAY - IC50): 6.04 µM
32 | COc1cccc(C(O)c2nc(C(=O)Nc3ccc(OCc4ccccc4)cc3)cs2)c1 (stereo unspecified) | 4.39 | IC50 (HEPG2TOX_HILL_SLOPE 0.759, HEPG2TOX_R_SQUARED 0.957, PBLUC_HILL_SLOPE 2.06, PBLUC_R_SQUARED 0.859, read-out: LUCIFERASE INFECTION ASSAY - IC50): 1.51 µM
33 | CCNC(=O)C1CCCN(C(=O)c2c(-c3ccccc3)noc2C)CC1 (stereo unspecified) | > 9.28 | IC50 [1]: > 9.28 µM
34 | CC1=C(C(=O)OCc2ccccc2)C(c2ccccc2OC(C)C)CC(=O)N1 (stereo unspecified) | > 8.7 | IC50 (FFLUC_HILL_SLOPE 12.1, FFLUC_R_SQUARED 0.679, read-out: LUCIFERASE INFECTION ASSAY - IC50): > 8.7 µM
35 | O=C1C(=O)N(Cc2ccco2)C(=O)N1Cc1ccc(-c2ccccc2)cc1 | > 10 | IC50 (HEPG2TOX_HILL_SLOPE 17.7, HEPG2TOX_R_SQUARED 0.836, PBLUC_HILL_SLOPE 2.05, PBLUC_R_SQUARED 0.957, read-out: LUCIFERASE INFECTION ASSAY - IC50): 4.16 µM
36 | CCCn1nc(C(=O)Nc2ccccc2Cc2ccccc2)c2ccccc2c1=O | > 10 | IC50 (FFLUC_HILL_SLOPE 12.7, FFLUC_R_SQUARED 0.0456, HEPG2TOX_HILL_SLOPE 0.0305, HEPG2TOX_R_SQUARED 0.0383, read-out: LUCIFERASE INFECTION ASSAY - IC50): > 10 µM
37 | CN1C(c2ccc(F)cc2)=CS/C1=C(/C#N)c1nnc(N2CCOCC2)n1-c1ccccc1 | > 10 | IC50 (PBLUC_HILL_SLOPE 2.7, PBLUC_R_SQUARED 0.681, read-out: LUCIFERASE INFECTION ASSAY - IC50): 6.9 µM
38 | O=C(Nc1ccc(OC(F)(F)F)cc1)c1ccc2c(c1)no[n+]2[O-] | 7.89 | IC50 (HEPG2TOX_HILL_SLOPE 13, HEPG2TOX_R_SQUARED 0.448, PBLUC_HILL_SLOPE 2.82, PBLUC_R_SQUARED 0.324, read-out: LUCIFERASE INFECTION ASSAY - IC50): 3.62 µM
